The text below walks through data of patent US11542254B2, “Methods and composition of 4-substituted benzoylpiperazine-1-substituted carbonyls as beta-catenin/B-cell lymphoma 9 inhibitors” (University of Utah Research Foundation, priority 2016, dated 2023).

Test [1] has as its system pcDNA3.1-β-catenin transfected HEK293 cells, TOPFlash (wild-type Tcf binding sites). Briefly: TOPFlash Wnt-responsive luciferase reporter assay. Format: cell-based. The note with it: 24 h treatment, hydrochloride. The method, then:
(§1) 27. Cell Transfection and Luciferase Assay
(§2) FuGENE 6 (E2962, Promega) in a 96-well plate format was used for the transfection of HEK293 and SW480 cells according to the manufacturer's instructions. HEK293 cells were co-transfected with 45 ng of the TOPFlash (with three wild-type Tcf binding sites) or FOPFlash (with three mutant Tcf binding sites) reporter gene, 135 ng pcDNA3.1-β-catenin and 20 ng pCMV-RL normalization reporter gene. SW480 cells were co-transfected with 60 ng of the TOPFlash or FOPFlash reporter gene and 40 ng pCMV-RL normalization reporter. Cells were cultured at 37° C. for 24 h, and different concentrations of inhibitors were then added. After 24 h, the luciferase reporter activity was measured using the Dual-Glo system (E2940, Promega). Normalized luciferase activity in response to the treatment with the inhibitors was compared with that obtained from the cells treated with DMSO. Experiments were performed in triplicate.

The test system of another test is SW480 cells. Description: MTS cell viability assay, SW480. In kind it is cell-based. The note with it: read-out: IC50 ± SD. As for the experimental part:
(§3) 26. MTS Cell Viability Assay
(§4) Colorectal cancer cell lines, SW480 and HCT116 were seeded in 96-well plates at 4×10^3 cells/well, maintained overnight at 37° C., and incubated with the tested compounds at various concentrations. Cell viability was monitored after 72 h using a freshly prepared mixture of 1 part phenazine methosulfate (PMS, Sigma) solution (0.92 mg/mL) and 19 parts 3-(4,5-dimethylthiazol-2-yl)-5-(3-carboxymethoxyphenyl)-2-(4-sulfophenyl)-2H-tetrazolium (MTs, Promega) solution (2 mg/mL). Cells were incubated in 10 μL of this solution at 37° C. for 3 h, and A490 was measured. […] Experiments were performed in triplicate.

The subject of another test is HCT116 cells. Description: MTS cell viability assay, HCT116. Format: cell-based. The note with it: read-out: IC50 ± SD. As for the experimental part: as §3, §4
The next test addresses β-catenin/BCL9 PPI (Homo sapiens (Human), UniProt P35222). Briefly: AlphaScreen competitive inhibition assay, wild-type β-catenin/BCL9 PPI. Format: binding. The note with it: wild-type β-catenin/BCL9 PPI, AlphaScreen competitive inhibition, mean ± SD (n=3). As for the experimental part:
Cells were cultured in LB medium with 30 μg/mL kanamycin until the OD600 was approximately 0.8, and then protein expression was induced with 400 μM of IPTG at 20° C. overnight. Cells were lysed by sonication. […] Native non-denaturing gel electrophoresis was performed to confirm the homogeneity of the purified proteins. Thermal-shift assay was performed on an iCycler iQ Real Time Detection System (Bio-Rad) to monitor protein stability and detect protein aggregation. Protein unfolding was evaluated through measuring the fluorescence changes of fluorescent dye Sypro Orange when interacting with wild-type or mutant β-catenin proteins. A temperature increment of 1°/min was applied. […] All spectra were recorded at room temperature, and the baseline control containing all of the substances except protein. Sample were prepared at a concentration around 1-5 μM in a buffer of 10 mM potassium phosphate and 100 mM potassium fluoride at pH 7.0 to ensure that the transmission of light through the sample was not restricted. […] Proteins were aliquoted and stored at −80° C.
25. Alphascreen Competitive Inhibition Assays Using Wild-Type and Mutant β-Catenin Proteins

For a further test, the target named is β-catenin D145A/BCL9 PPI (Homo sapiens (Human), UniProt P35222, D145A). Description: AlphaScreen competitive inhibition assay, β-catenin D145A mutant/BCL9 PPI. In kind it is binding. The method, then:
(§5) β-Catenin mutants D145A, E155A, D145A/E155A have been made previously.^5 Wild-type β-catenin and its mutants (residues 138-686) were cloned into a pET-28b vector carrying a C-terminal 6×histidine (Novagen), and transformed into Escherichia coli BL21 DE3 (Novagen). Cells were cultured in LB medium with 30 μg/mL kanamycin until the OD600 was approximately 0.8, and then protein expression was induced with 400 μM of IPTG at 20° C. overnight. Cells were lysed by sonication. […] The purity of β-catenin was greater than 95% as determined by SDS-PAGE gel analysis. Native non-denaturing gel electrophoresis was performed to confirm the homogeneity of the purified proteins. Thermal-shift assay was performed on an iCycler iQ Real Time Detection System (Bio-Rad) to monitor protein stability and detect protein aggregation. Protein unfolding was evaluated through measuring the fluorescence changes of fluorescent dye Sypro Orange when interacting with wild-type or mutant β-catenin proteins. A temperature increment of 1°/min was applied. CD spectra were measured on a J-815 spectropolarimeter (Jasco). All spectra were recorded at room temperature, and the baseline control containing all of the substances except protein. […]

Another test addresses β-catenin E155A/BCL9 PPI (Homo sapiens (Human), UniProt P35222, E155A). Description: AlphaScreen competitive inhibition assay, β-catenin E155A mutant/BCL9 PPI. Format: binding. As for the experimental part: as §5
The target of test [2] is β-catenin D145A/E155A double mutant/BCL9 interaction (Homo sapiens (Human), UniProt P35222, D145A/E155A). Description: AlphaScreen competitive inhibition assay, β-catenin D145A/E155A double mutant/BCL9 interaction. In kind it is binding. As to conditions: read-out: Ki ± SD. The method, then: as §5
Chain of β-catenin D145A/E155A double mutant/BCL9 interaction (P35222 138-686 D145A/E155A): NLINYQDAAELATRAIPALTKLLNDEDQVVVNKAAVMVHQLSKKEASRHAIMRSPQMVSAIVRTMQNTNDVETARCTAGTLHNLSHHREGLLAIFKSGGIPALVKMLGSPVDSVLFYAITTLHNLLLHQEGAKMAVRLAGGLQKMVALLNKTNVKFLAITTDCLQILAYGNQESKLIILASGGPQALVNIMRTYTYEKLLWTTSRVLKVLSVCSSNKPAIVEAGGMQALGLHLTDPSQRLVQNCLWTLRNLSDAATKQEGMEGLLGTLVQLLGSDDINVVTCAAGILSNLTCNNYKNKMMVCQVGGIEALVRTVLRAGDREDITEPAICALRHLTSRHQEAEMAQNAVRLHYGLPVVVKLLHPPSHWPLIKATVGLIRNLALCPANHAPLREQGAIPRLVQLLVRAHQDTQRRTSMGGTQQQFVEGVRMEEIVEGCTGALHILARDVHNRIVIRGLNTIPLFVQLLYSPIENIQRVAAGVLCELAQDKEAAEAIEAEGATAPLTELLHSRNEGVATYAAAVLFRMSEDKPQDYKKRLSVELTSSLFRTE
The target in another test is β-catenin/cadherin PPI (Homo sapiens (Human), UniProt P35222). Description: AlphaScreen selectivity assay, β-catenin/BCL9 over β-catenin/cadherin PPIs. In kind it is binding. The note with it: in-parallel AlphaScreen selectivity assay. From the text: Human BCL9 (residues 350-375), N-terminally biotinylated human BCL9 (residues 350-375), N-terminally fluorescein-labeled human BCL9 (residues 350-375), and N-terminally biotinylated human E-cadherin (residues 824-877) were synthesized by InnoPep Inc. (www.innopep.com) and HPLC purified by HPLC with purity>95%. The structures were validated by LC/MS. The sequences of these peptides have been described previously.^6
Chain of β-catenin/cadherin PPI (P35222 138-686): as the sequence (P35222 138-686 D145A/E155A) above, with A8D, A18E counted along it
The experimental details of the AlphaScreen competitive inhibition assays for the β-catenin/BCL9 and β-catenin/E-cadherin PPIs have been described previously.^5 The concentrations of mutant β-catenin proteins used in the AlphaScreen competitive inhibition assays were the same as that of wild-type β-catenin protein.
The AlphaScreen selectivity assay was used to quantify inhibitor selectivity.

Test [3] concerns pcDNA3.1-β-catenin transfected HEK293 cells, FOPFlash (mutant Tcf binding sites). Briefly: FOPFlash luciferase reporter assay. In kind it is cell-based. The note with it: up to 100 μM. The method, then: as §1, §2

Each structure is given as a SMILES string. Entries after “also recorded” stand apart in the source; their conditions may differ. Where a name gives a salt, the structure may show the parent alone. Read-outs that look alike come from different tables or passages of the source.

Chain of β-catenin/BCL9 PPI (P35222 138-686): as the sequence (P35222 138-686 D145A/E155A) above, with A8D, A18E counted along it
Chain of β-catenin E155A/BCL9 PPI (P35222 138-686 E155A): as the sequence (P35222 138-686 D145A/E155A) above, with A8D counted along it
Chain of β-catenin D145A/BCL9 PPI (P35222 138-686 D145A): as the sequence (P35222 138-686 D145A/E155A) above, with A18E counted along it

On to `CC1CCC(c2cc(C(=O)N3CCN(C(=O)c4cc(F)cc(N5CCNCC5)c4)CC3)ccc2O[C@H]2CCNC2)CC1.Cl` (stereo partly drawn) [Compound 12, (S)-(4-(3-fluoro-5-(piperazin-1-yl)benzoyl)piperazin-1-yl) (3-(4-methylcyclohexyl)-4-(pyrrolidin-3-yloxy)phenyl) methanone hydrochloride], for which the TOPFlash luciferase activity result in test [1] is given as “suppressed the TOPFlash (with wild-type Tcf binding sites) luciferase activity in a dose-dependent manner; also recorded: suppress the transactivation of canonical Wnt signaling”. In addition, the half-inhibitory concentration (IC50) stood at 44 ± 6.5 µM in the test on SW480 cells (SW480 colorectal cancer cells, MTS, 72 h) and 39 ± 5.4 µM with HCT116 cells (HCT116 colorectal cancer cells, MTS, 72 h).
On to `O=C(c1cc(F)cc(N2CCNCC2)c1)N1CCN(C(=O)c2ccc(O[C@H]3CCNC3)c(-c3ccc(F)cc3)c2)CC1` [Compound 2, (S)-(4-(3-fluoro-5-(piperazin-1-yl)benzoyl)piperazin-1-yl) (4′-fluoro-6-(pyrrolidin-3-yloxy)-[1,1′-biphenyl]-3-yl) methanone hydrochloride], for which, at β-catenin/BCL9 PPI, the inhibition constant Ki was 19 µM. Moreover, the IC50 came out at 86 ± 8.8 µM in the test with SW480 cells (Homo sapiens, SW480 colorectal cancer cells, MTS, 72 h) and 120 ± 16 µM in the test on HCT116 cells (Homo sapiens, HCT-116, HCT116 colorectal cancer cells, MTS, 72 h).
Turning to `Cl.Cl.O=C(c1cc(F)cc(N2CCNCC2)c1)N1CCN(C(=O)c2ccc(O[C@H]3CCNC3)c(C3CCCCC3)c2)CC1` [Compound 10, (S)-(4-(3-Cyclohexyl-4-(pyrrolidin-3-yloxy)benzoyl)piperazin-1-yl) (3-fluoro-5-(piperazin-1-yl)phenyl) methanone hydrochloride], the Ki on β-catenin/BCL9 PPI was found to be 5.2 µM; at β-catenin D145A/BCL9 PPI (β-catenin D145A/BCL9 PPI, AlphaScreen competitive inhibition, read-out: Ki ± SD), 29 ± 3 µM; at β-catenin E155A/BCL9 PPI (β-catenin E155A/BCL9 PPI, AlphaScreen competitive inhibition, read-out: Ki ± SD), 39 ± 3.3 µM; in test [2] it was 53 ± 4.2 µM. The “Ki fold higher than for wild-type β-catenin/BCL9 PPI” value on β-catenin D145A/BCL9 PPI (β-catenin D145A/BCL9 PPI vs wild type) and on β-catenin E155A/BCL9 PPI (β-catenin E155A/BCL9 PPI vs wild type) was 6-8 fold throughout. At β-catenin/cadherin PPI, the “selectivity for β-catenin/BCL9 over β-catenin/cadherin PPIs” value amounted to 98 fold. The TOPFlash luciferase activity entry in [1] was “suppressed the TOPFlash (with wild-type Tcf binding sites) luciferase activity in a dose-dependent manner; also recorded: suppress the transactivation of canonical Wnt signaling”. Also, in test [3], the FOPFlash luciferase activity result is recorded as “did not affect”. For the same compound, the IC50 in the test with SW480 cells (Homo sapiens, SW480, 72 h) was 22 ± 4 µM; in the test with HCT116 cells (Homo sapiens, HCT-116, 72 h) it was 26 ± 6.6 µM.
